How the values were obtained:
Format in all cases: in vivo, human
[1] = system: patient with rheumatoid arthritis; test: DMSO solution administered to arthritic knee of a patient with rheumatoid arthritis; conditions: 5 percent solution in DMSO, topical on arthritic knee; after one week of treatment
Description: A 5 percent solution of alpha 1-antitrypsin was prepared with DMSO. A patient with rheumatoid arthritis administered the composition to an arthritic knee.

[2] = system: patient having scleroderma of the finger; test: salve used daily on a patient having scleroderma of the finger
Description: A salve comprising 1% alpha 1-antitrypsin was prepared with Aquaphor® and 1% water. The salve was used daily on a patient having scleroderma of the finger. The finger was bent and constricted. The skin around the finger was hardened. After a daily application for one month the skin was softer, the finger was more flexible and the bending was less severe.

[3] = system: women with interstitial cystitis; test: 19 patient study of women with interstitial cystitis, intravesical instillation
Description: A 19 patient study of women with interstitial cystitis was conducted for four weeks. Three of the patients were diagnosed as being urinary incontinent. The diagnosis of IC was considered as being mild to severe. Powdered alpha 1-antitrypsin (40 mg) was dissolved in 40 ml of saline solution. The solutions were instilled into the bladder for 20 minutes weekly for four weeks. Cystoscopy was carried out during and after filling the bladder for one minute at a pressure of 80 cm of water under spinal and general anesthesia. Bladder biopsies were carried out during cystoscopy. 24-hour collection for measurement of creatine, methylhistamine and tryptase were taken.
In lieu of the recombinant or natural alpha 1-antitrypsin, the conjugate with PEG may be used.

[4] = salve, 1% alpha 1-antitrypsin with Aquaphor and 1% water, daily application for one month
[5] = 40 mg in 40 ml saline instilled into the bladder for 20 minutes weekly for four weeks, weekly studies

## alpha 1-antitrypsin
[1]
  knee flexibility: greater flexibility
  knee pain: free of pain
  knee swelling: substantial reduction in swelling
[2]; [4]
  bending of the finger: less severe
  flexibility of the finger: more flexible
  skin around the finger: softer
[2]; within six months after stopping the 1% salve
  finger position after the treatment was stopped: returned to the bent position
[3]; [5]
  creatine, 24-hour collection: decrease
  methylhistamine, 24-hour collection: decrease
  tryptase, 24-hour collection: decrease
[3]; after two weeks of weekly instillation
  lesions by cystoscopy: substantial decrease in lesions
[3]; after two weeks of weekly instillation, three urinary incontinent patients
  continence of the incontinent patients: continent

Source: patent US6566331B1, “Treatment of collagen related diseases” (Alphamed Pharmaceutical Corp, priority 1999, dated 2003)
